Source: PubChem BioAssay AID2387 (Broad Institute, 2010)
Activity calls are given as the source filed them.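 How the source made its calls: active means fitted EC50 no more than tenfold above the highest tested concentration; inconclusive means flat fit with 30 to 70% signal loss, or poor fit; inactive means the rest.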

test system: Candida albicans CaCi-2 growth (no fluconazole), Alamar Blue; assay: intrinsic antifungal toxicity in Candida, azole-free – CaCi-2 strain, Alamar Blue fluorescence, counter-screen for fluconazole resistance reversal project, dose response (AID 2387); conditions: C. albicans CaCi-2 (fluconazole-resistant clinical isolate) growth without fluconazole, 48 h

Structure (SMILES) | EC50
CCOC(=O)c1c(NC(=S)NCC2CCCO2)sc(C)c1C (stereo not given) | > 16 µM (inactive)
O=C(c1cc(-c2ccccc2)n[nH]1)N1CCc2c([nH]c3ccccc23)C1c1ccccn1 (stereo not given) | > 16 µM (inactive)
COc1ccc(OC)c(C2C(C(=O)c3cc4ccccc4o3)=C(O)C(=O)N2c2cc(C)on2)c1 (stereo not given) | > 15 µM (inactive)
O=C(c1ccc(Cn2c(=S)[nH]c3ccccc3c2=O)cc1)N1CCN(c2ccccn2)CC1 | > 15 µM (inactive)
CCCCC(=O)NC(c1ccco1)c1cc(Cl)c2cccnc2c1O (stereo not given) | 10.5 µM
COc1ccccc1NC1=C(N2CCCCC2)C(=O)c2ccccc2C1=O | > 16 µM (inactive)
COc1cccc(N=Nc2ccc(O)c3ncccc23)c1 | 1.26 µM
CCc1ccc2c(c1)/C(=C/C(=O)c1cccs1)C(=O)N2 | > 15 µM (inactive)
C=CCc1c(C)c(C#N)c2nc3ccccc3n2c1NCCN(C)C | > 15 µM (inactive)
O=C(Nc1cccc(-c2cn3ccccc3n2)c1)c1cccc(Cl)c1 | > 16 µM (inactive)
CCNC(=S)NNC(=O)c1cc(-c2ccccc2C)nc2ccccc12 | > 16 µM (inactive)
COc1ccc(-n2cc(-c3ccc(C)cc3)[n+]3c2SCC3)cc1 | > 15 µM (inactive)
c1ccc(CC2CCN(c3ncnc4sccc34)CC2)cc1 | > 16 µM (inactive)
CC1(O)CC(c2ccc(Cl)cc2)=NN1C(=O)c1ccc([N+](=O)[O-])cc1 (stereo not given) | > 16 µM (inactive)
CCC(C)n1cnc2c(c1=O)c1nc3ccccc3nc1n2Cc1ccc(OC)cc1 (stereo not given) | > 16 µM (inactive)
O=[N+]([O-])c1cc(O)c2ncccc2c1 | 12.3 µM
Cc1ccc(S(=O)(=O)N(C)c2ccc(OCC(=O)Nc3nnc(C4CC4)s3)cc2)cc1 | > 15 µM (inactive)
O=C(c1ccc(Cl)cc1)N1CCN(c2ccnc3cc(Cl)ccc23)CC1 | > 15 µM (inactive)
O=[N+]([O-])c1nn(-c2ccc(Cl)cc2)n(O)c1=NCc1cccnc1 | > 15 µM (inactive)
Cc1c(OCC(=O)NCC(O)c2ccccc2)ccc2c(-c3ccccc3)cc(=O)oc12 (stereo not given) | > 16 µM (inactive)

Structure (SMILES) | EC50
Cc1ccc(-n2nc(C)c3c(C)cc(=O)[nH]c32)cc1 | > 15 µM (inactive)
Cc1ccc(OCC(=O)NNC(=S)NC(=O)C2CC2)c(C)c1 | > 15 µM (inactive)
CN(C)c1cc(N/N=C/c2ccc(Cl)cc2)nc(N(C)C)n1 | > 16 µM (inactive)
O=C(CCS(=O)(=O)c1ccc(Cl)cc1)Nc1nc(-c2ccncc2)cs1 | > 15 µM (inactive)
Cc1cc(Br)ccc1OCC(=O)NNC(=O)C(=O)Nc1ccccc1 | > 15 µM (inactive)
CC(C)(C)c1ccc(CSc2cnn(C(C)(C)C)c(=O)c2Cl)cc1 | > 16 µM (inactive)
CCCCCCC[n+]1ccc(-c2cc[n+](CCCCCCC)cc2)cc1 | 1.68 µM
COc1ccc(C(=O)N2c3ccccc3C=CC2C#N)cc1 (stereo not given) | > 15 µM (inactive)
COc1ccc(CCNc2ncnc3sc(C)cc23)cc1OC | > 15 µM (inactive)
CCSc1nnc(-c2ccc(C)cc2)c2ccccc12 | > 15 µM (inactive)
CCN(CC)c1ccc2cc(S(=O)(=O)c3ccc(C)cc3)c(=O)oc2c1 | > 16 µM (inactive)
CC(CC(=O)Nc1ncc([N+](=O)[O-])s1)c1ccccc1 (stereo not given) | > 16 µM (inactive)
Cc1ccc(C)c(NC(=S)NNC(=O)c2csc(C(C)C)c2)c1 | > 16 µM (inactive)
COc1cccc(/C=N/NC(=O)c2c(C)nc3ccc(Br)cn23)c1O | > 16 µM (inactive)
CCC(=O)NC(c1cccs1)c1cc(Cl)c2cccnc2c1O (stereo not given) | 16.4 µM
Cc1nn(-c2ccccc2)c(Cl)c1/C=C/C(=O)c1ccc(O)cc1 | > 16 µM (inactive)
CCc1nnc(NC(=O)CSc2ncc(-c3ccccc3)n2C)s1 | > 15 µM (inactive)
CC(Nc1ncnc2ccccc12)c1ccccc1 (stereo not given) | > 16 µM (inactive)
COc1ccc(Cl)cc1C(Nc1cccnc1)c1ccc2cccnc2c1O (stereo not given) | 11.8 µM
CCOc1ccc(-c2ccc(NS(=O)(=O)c3ccc([N+](=O)[O-])cc3)cc2)nn1 | > 15 µM (inactive)
